According to article PMC11256326, “Discovery of Heparin Mimetic, Potent, and Selective Inhibitors of Human Clotting Factor XIIIa” (ACS Omega, 2024):
Marks after values point to notes of the source that are not given here.

Target: T1, FXIIIa (Homo sapiens, UniProt P00488)
T1 construct: purchased Haematologic Technologies; host or cells: human plasma
T1 sequence (P00488 39-732 limits assumed): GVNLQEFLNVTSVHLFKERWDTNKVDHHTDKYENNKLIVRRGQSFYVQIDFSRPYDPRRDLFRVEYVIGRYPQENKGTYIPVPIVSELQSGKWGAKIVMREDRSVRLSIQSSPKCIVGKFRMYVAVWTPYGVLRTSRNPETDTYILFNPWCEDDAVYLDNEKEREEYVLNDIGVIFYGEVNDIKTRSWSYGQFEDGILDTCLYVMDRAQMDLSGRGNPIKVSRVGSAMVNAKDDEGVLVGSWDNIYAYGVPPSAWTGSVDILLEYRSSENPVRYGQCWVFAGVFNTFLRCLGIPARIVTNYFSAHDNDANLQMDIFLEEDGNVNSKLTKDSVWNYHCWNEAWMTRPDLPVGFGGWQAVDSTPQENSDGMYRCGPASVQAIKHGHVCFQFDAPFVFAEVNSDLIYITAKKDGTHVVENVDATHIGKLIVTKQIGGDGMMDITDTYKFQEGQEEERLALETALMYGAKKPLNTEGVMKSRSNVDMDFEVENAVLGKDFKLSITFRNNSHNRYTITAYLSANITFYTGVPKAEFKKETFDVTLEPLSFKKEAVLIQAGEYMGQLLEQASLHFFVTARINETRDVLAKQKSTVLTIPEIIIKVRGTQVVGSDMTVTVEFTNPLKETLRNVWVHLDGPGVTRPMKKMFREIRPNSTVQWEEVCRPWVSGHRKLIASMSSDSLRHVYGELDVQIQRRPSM
Assay: Michaelis-Menten kinetics of dansylcadaverine and N,N-dimethylcasein conjugation by human FXIIIa
Assay type: biochemical
Conditions: for VMAX, dansylcadaverine varied: N,N-dimethylcasein 5 mg/mL; for VMAX, dimethylcasein varied: dansylcadaverine 250 μM
Method: To elucidate the FXIIIa inhibitory capacity of compound 16, the kinetics of dansylcadaverine conjugation with dimethylcasein by FXIIIa were investigated with and without the inhibitor using the bisubstrate fluorescence assay.[36],[49],[55] At a fixed, high concentration of dansylcadaverine (250 μM), the initial rate of conjugation increased in a hyperbolic manner with increasing concentration of dimethylcasein (0–15 mg/mL) (Figure 6A) in the presence as well as absence of inhibitor 16. Analysis using the Michaelis equation led to KM values for dimethylcasein of 0.65 ± 0.04 mg/mL (∼29.5 μM) and 7.54 ± 0.90 mg/mL (∼342.7 μM) in the absence and presence of 16, respectively (Table 4). […] To derive kinetic constants for dansylcadaverine, we used a fixed, high concentration of dimethylcasein (5 mg/mL) and studied the initial rate of conjugation, as described above. […] It is important to note that FXIIIa-mediated reaction is a bisubstrate conjugation reaction and its interaction with inhibitor 16 is sensed differently by the two substrates. […] Yet, for both substrates, there was a similar slight decrease (∼1.5-fold) in the VMAX with the same inhibitor concentration. In these experiments inhibitor 16 was used at varying levels, of which the highest concentration ensured that FXIIIa was essentially fully saturated and inhibited.
The initial rate of FXIIIa-mediated conjugation between dansylcadaverine and N,N-dimethylcasein was determined by monitoring the linear increase in fluorescence at λEM = 550 nm (λEX = 360 nm). This initial rate was assessed as a function of various concentrations of either (1) dansylcadaverine (ranging from 0 to 15 mM; resulting effective concentrations in the well were 0–750 μM) at a fixed saturating concentration of dimethylcasein (5 mg/mL), or (2) dimethylcasein (ranging from 0 to 15 mg/mL) at a fixed concentration of dansylcadaverine (5 mM; resulting effective concentration of 250 μM), both in the absence or presence of inhibitor 16 (at concentrations of 0, 0.5, 2.5, 15, and 25 μM). These assays were conducted in 50 mM Tris-HCl buffer at pH 8.0, containing 100 mM NaCl, 1 mM DTT, and 10 mM CaCl2 at 37 °C. The obtained data were fitted using the standard Michaelis–Menten equation (eq 2) to determine the values of KM and VMAX. [drawing 2] 2

**Q.** For Nc1c(/N=N/c2ccc(S(=O)(=O)CCOS(=O)(=O)O)cc2)c(S(=O)(=O)O)cc2cc(S(=O)(=O)O)c(/N=N/c3ccc(S(=O)(=O)CCOS(=O)(=O)O)cc3)c(O)c12 [compound 16], which “mechanism of FXIIIa inhibition (Michaelis–Menten kinetics)” value is on record?
**A.** only competes with the Gln-donor protein substrate

**Q.** And the “decrease in VMAX, dansylcadaverine varied” value (16 at 25 μM vs absence)?
**A.** ~1.5 fold

**Q.** What about the “decrease in VMAX, dimethylcasein varied” value (16 at 25 μM vs absence) of the same compound?
**A.** ~1.4 fold

**Q.** And the “decrease in dansylcadaverine binding affinity (KM increase)” value (16 at 25 μM vs absence)?
**A.** ~2 fold

**Q.** And the “decrease in dimethylcasein binding affinity (KM increase)” value (16 at 25 μM vs absence)?
**A.** ~11.6 fold

**Q.** What about the “VMAX, dansylcadaverine varied” value ([16] = 0.5 μM) of the same compound?
**A.** 111.4 ± 4.1 RFU/min (×10^3)

**Q.** And the “VMAX, dimethylcasein varied” value ([16] = 0.5 μM)?
**A.** 43.5 ± 2.4 RFU/min (×10^3)

**Q.** What about the “VMAX, dansylcadaverine varied” value ([16] = 2.5 μM) of the same compound?
**A.** 89.76 ± 3.8 RFU/min (×10^3)

**Q.** What about the “VMAX, dimethylcasein varied” value ([16] = 2.5 μM) of the same compound?
**A.** 42.0 ± 0.6 RFU/min (×10^3)

**Q.** What about the “VMAX, dansylcadaverine varied” value ([16] = 15 μM) of the same compound?
**A.** 81.94 ± 4.0 RFU/min (×10^3)

**Q.** What about the “VMAX, dimethylcasein varied” value ([16] = 15 μM) of the same compound?
**A.** 44.5 ± 1.5 RFU/min (×10^3)

**Q.** And the “VMAX, dansylcadaverine varied” value ([16] = 25 μM)?
**A.** 69.69 ± 2.9 RFU/min (×10^3)

**Q.** What about the “VMAX, dimethylcasein varied” value ([16] = 25 μM) of the same compound?
**A.** 34.9 ± 2.0 RFU/min (×10^3)
